From patent publication US20240148821A1, “PHARMACEUTICAL USE OF CYCLIC PEPTIDE COMPOUND” (CHUGAI SEIYAKU KABUSHIKI KAISHA, priority 2021, published 2024)
Numbered stars: 1 amine (or outer) side, 2 acyl side, 3 side chain; on linkers, the order of the positions; unused ones are H or OH. Bridge positions count the residues as written; N and C are the ends. Square brackets hold non-standard residues; d marks the D form. Peptide text beside a SMILES is read from it. * marks the point of attachment. hPhe(3-Cl-4-CF3) = N[C@@H](CCc1ccc(C(F)(F)F)c(Cl)c1)C(=O)O; hPhe(3-F,4-CF3) = N[C@@H](CCc1ccc(C(F)(F)F)c(F)c1)C(=O)O; NMePhe(4-CF3) = CN[C@@H](Cc1ccc(C(F)(F)F)cc1)C(=O)O; NEtPhe(4-Cl) = CCN[C@@H](Cc1ccc(Cl)cc1)C(=O)O; NMeAbu(4,4,4-F3) = CN[C@@H](CC(F)(F)F)C(=O)O; NMePhe(3-Cl) = CN[C@@H](Cc1cccc(Cl)c1)C(=O)O; NMePhe(4-Cl) = CN[C@@H](Cc1ccc(Cl)cc1)C(=O)O; NMePhe(4-Me) = CN[C@@H](Cc1ccc(C)cc1)C(=O)O; X48 = CN([C@@H](CCc1cccnc1)C(=O)[*:2])[*:1]; NMePhe(2-F) = CN[C@@H](Cc1ccccc1F)C(=O)O; NMeGly(cPent) = CN[C@H](C(=O)O)C1CCCC1; Phe(3-I) = N[C@@H](Cc1cccc(I)c1)C(=O)O; NMeCha = CN[C@@H](CC1CCCCC1)C(=O)O; Hyp = O=C(O)[C@@H]1C[C@@H](O)CN1; NMeChg = CN[C@H](C(=O)O)C1CCCCC1; NMeF = CN[C@@H](Cc1ccccc1)C(=O)O; NMeI = CC[C@H](C)[C@H](NC)C(=O)O; Cha = N[C@@H](CC1CCCCC1)C(=O)O; Gly(cPr) = N[C@H](C(=O)O)C1CC1; NMeD = CN[C@@H](CC(=O)O)C(=O)O; CH2CONHtBu = CC(C)(C)NC(=O)C*; NMeL = CN[C@@H](CC(C)C)C(=O)O; NMeNva = CCC[C@H](NC)C(=O)O; NMeV = CN[C@H](C(=O)O)C(C)C; Trifluoroethyl = FC(F)(F)C*; d(β3hA) = C[C@@H](N)CC(=O)O; NMeS = CN[C@@H](CO)C(=O)O; NMeA = CN[C@@H](C)C(=O)O; NMeAib = CNC(C)(C)C(=O)O; Nle = CCCC[C@H](N)C(=O)O; Piperidide = C1CCN(*)CC1; Pra = C#CC[C@H](N)C(=O)O; Pyrrolidide = C1CCN(*)C1; Ac5c = NC1(C(=O)O)CCCC1; Aze = O=C(O)[C@@H]1CCN1; Aib = CC(C)(N)C(=O)O; Isopentyl = CC(C)CC*; Sar = CNCC(=O)O; Propyl = CCC*

System: Human pancreatic cancer cell line AsPC-1 (G12D mutation Kras)
Assay: AsPC-1 cell growth inhibition (AsPC-1 CGI)
Assay type: cell-based
Conditions: read-out: AsPC-1 cell growth inhibition, 50% growth inhibitory concentration (IC50 value); 96 hours, CellTiter-Glo, values classified in ranges
Method: Test compounds were serially dilated with dimethyl sulfoxide, and 200 nL was then dispensed to a U-bottom 96-well plate using Labcyte Echo. […] The cell suspension was dispensed to a. plate containing a test compound at 100 μL per well and incubated at 37° C. in a 5% carbon dioxide gas incubator. 96 hours later, 80 μL of CellTiter-Glo (Promega) was added to each well and fluorescence was measured.

SMILES | IC50 [µM]
CC(C)C[C@H]1C(=O)N[C@@H](COCC(F)(F)F)C(=O)N(C)CC(=O)N(C)CC(=O)N(C)[C@@H](CC2CCCCC2)C(=O)N(C)CC(=O)N[C@@H](CCc2ccc(C(F)(F)F)c(Cl)c2)C(=O)N2CCC[C@H]2C(=O)NC2(CCCC2)C(=O)N(C)[C@@H](C2CCCCC2)C(=O)N(C)[C@H](C(=O)N2CCCCC2)CC(=O)N1C [Compound 894] ([NMeL]S(Trifluoroethyl)[Sar][Sar][NMeCha][Sar][hPhe(3-Cl-4-CF3)]P[Ac5c][NMeChg][NMeD]-Piperidide; lactam N-11) | > 0.5
CC[C@H](C)[C@@H]1NC(=O)[C@H](CC(C)C)N(C)C(=O)C[C@@H](C(=O)N2CCCCC2)N(C)C(=O)[C@H](C2CCCCC2)N(C)C(=O)C2(CCCC2)NC(=O)[C@H](CC(=O)O)N(C)C(=O)[C@H](CCc2ccc(C(F)(F)F)c(Cl)c2)NC(=O)CN(C)C(=O)[C@H](CC2CCCCC2)N(C)C(=O)CN(C)C(=O)CN(C)C1=O [Compound 688] ([NMeL]I[Sar][Sar][NMeCha][Sar][hPhe(3-Cl-4-CF3)][NMeD][Ac5c][NMeChg][NMeD]-Piperidide; lactam N-11) | > 0.5
CC[C@H](C)[C@@H]1NC(=O)[C@H](CC(C)C)N(C)C(=O)C[C@@H](C(=O)N(C)C)N(C)C(=O)[C@H](C2CCCC2)N(C)C(=O)[C@H](C(C)C)NC(=O)[C@H](C)N(C)C(=O)[C@H](CCc2ccc(C(F)(F)F)c(Cl)c2)NC(=O)CN(C)C(=O)[C@H](CC2CCCCC2)N(C)C(=O)[C@@H]2CCN2C(=O)[C@H](C)N(C)C1=O [Compound 102] ([NMeL]I[NMeA][Aze][NMeCha][Sar][hPhe(3-Cl-4-CF3)][NMeA]V[NMeGly(cPent)][NMeD]-NMe2; lactam N-11) | > 0.5
CCCC[C@@H]1NC(=O)[C@H](Cc2cccc(I)c2)NC(=O)CN(C)C(=O)[C@H](Cc2ccc(Cl)cc2)N(CC)C(=O)CN(C)C(=O)CN(C)C(=O)[C@H]([C@@H](C)CC)NC(=O)[C@H](CC(C)C)N(C)C(=O)C[C@@H](C(=O)N2CCCCC2)N(C)C(=O)[C@H](CC(C)C)NC(=O)C(C)(C)N(C)C1=O [Compound 423] ([NMeL]I[Sar][Sar][NEtPhe(4-Cl)][Sar][Phe(3-I)][Nle][NMeAib]L[NMeD]-Piperidide; lactam N-11) | > 0.5
CCCOC[C@@H]1NC(=O)[C@H](CC(C)C)N(C)C(=O)C[C@@H](C(=O)N2CCCCC2)N(C)C(=O)[C@H](C2CCCCC2)N(C)C(=O)C2(CCCC2)NC(=O)[C@@H]2CCCN2C(=O)[C@H](CCc2ccc(C(F)(F)F)c(Cl)c2)NC(=O)CN(C)C(=O)[C@H](CC2CCCCC2)N(C)C(=O)CN(C)C(=O)CN(C)C1=O [Compound 1736] ([NMeL]S(Propyl)[Sar][Sar][NMeCha][Sar][hPhe(3-Cl-4-CF3)]P[Ac5c][NMeChg][NMeD]-Piperidide; lactam N-11) | > 0.5
CC[C@H](C)[C@@H]1NC(=O)[C@H](C)N(C)C(=O)C[C@@H](C)NC(=O)[C@H](C(C)C)N(C)C(=O)[C@H](Cc2ccccc2)N(C)C(=O)[C@H](CC(C)C)N(C)C(=O)[C@H](CCc2ccc(C(F)(F)F)c(Cl)c2)NC(=O)CN(C)C(=O)[C@H](Cc2ccc(Cl)cc2)N(C)C(=O)CN(C)C(=O)CN(C)C1=O [Compound 1079] (cyclo(I[Sar][Sar][NMePhe(4-Cl)][Sar][hPhe(3-Cl-4-CF3)][NMeL][NMeF][NMeV][d(β3hA)][NMeA])) | > 0.5
CCC[C@H]1C(=O)N(C)CC(=O)N[C@@H](CCc2ccc(C(F)(F)F)c(Cl)c2)C(=O)N2CCC[C@H]2C(=O)NC2(CCCC2)C(=O)N(C)[C@@H](C2CCCCC2)C(=O)N(C)[C@H](C(=O)N2CCCCC2)CC(=O)N(C)[C@@H](CC(C)C)C(=O)N[C@@H]([C@@H](C)CC)C(=O)N(C)CC(=O)N(C)CC(=O)N1C [Compound 187] ([NMeL]I[Sar][Sar][NMeNva][Sar][hPhe(3-Cl-4-CF3)]P[Ac5c][NMeChg][NMeD]-Piperidide; lactam N-11) | > 0.5
CCO[C@@H]1C[C@H]2C(=O)NC3(CCCC3)C(=O)N(C)[C@@H](C3CCCCC3)C(=O)N(C)[C@H](C(=O)N3CCCC3)CC(=O)N(C)[C@@H](CC(F)(F)F)C(=O)N[C@@H]([C@@H](C)CC)C(=O)N(C)CC(=O)N(C)CC(=O)N(C)[C@@H](Cc3ccc(C(F)(F)F)cc3)C(=O)N(C)CC(=O)N[C@@H](CCc3ccc(C(F)(F)F)c(Cl)c3)C(=O)N2C1 [Compound 1139] ([NMeAbu(4,4,4-F3)]I[Sar][Sar][NMePhe(4-CF3)][Sar][hPhe(3-Cl-4-CF3)][Hyp](Et)[Ac5c][NMeChg][NMeD]-Pyrrolidide; lactam N-11) | ≤ 0.02
CC(C)C[C@H]1C(=O)N[C@@H](CC2CCCCC2)C(=O)N(C)CC(=O)N(C)CC(=O)N(C)[C@@H](CC2CCCCC2)C(=O)N(C)CC(=O)N[C@@H](CCc2ccc(C(F)(F)F)c(Cl)c2)C(=O)N2CCC[C@H]2C(=O)NC2(CCCC2)C(=O)N(C)[C@@H](C(C)C)C(=O)N(C)[C@H](C(=O)N2CCCCC2)CC(=O)N1C [Compound 986] ([NMeL][Cha][Sar][Sar][NMeCha][Sar][hPhe(3-Cl-4-CF3)]P[Ac5c][NMeV][NMeD]-Piperidide; lactam N-11) | > 0.5
CC[C@H](C)[C@@H]1NC(=O)[C@H](C)N(C)C(=O)C[C@@H](C)NC(=O)[C@H](C(C)C)N(C)C(=O)[C@H](Cc2ccccc2)N(C)C(=O)[C@H](CC(C)C)N(C)C(=O)[C@H](CCc2ccc(C(F)(F)F)c(F)c2)NC(=O)CN(C)C(=O)[C@H](Cc2ccc(Cl)cc2)N(C)C(=O)[C@@H]2CCN2C(=O)CN(C)C1=O [Compound 782] (cyclo([Aze][NMePhe(4-Cl)][Sar][hPhe(3-F,4-CF3)][NMeL][NMeF][NMeV][d(β3hA)][NMeA]I[Sar])) | > 0.5
CC[C@H](C)[C@@H]1NC(=O)[C@H](C)N(C)C(=O)C[C@@H](C)NC(=O)[C@H](C2CCCC2)N(C)C(=O)C2(CCCC2)NC(=O)[C@@H]2CCCN2C(=O)[C@H](CCc2ccc(C(F)(F)F)c(Cl)c2)NC(=O)CN(C)C(=O)[C@H](Cc2cccc(Cl)c2)N(C)C(=O)[C@@H]2CCCN2C(=O)CN(C)C1=O [Compound 186] (cyclo([Ac5c][NMeGly(cPent)][d(β3hA)][NMeA]I[Sar]P[NMePhe(3-Cl)][Sar][hPhe(3-Cl-4-CF3)]P)) | > 0.5
CC[C@H](C)[C@@H]1NC(=O)[C@H](CC(C)C)N(C)C(=O)C[C@@H](C(=O)N(C)C)N(C)C(=O)[C@H]([C@@H](C)CC)N(C)C(=O)C2(CCCC2)NC(=O)[C@H](CCc2cccnc2)N(C)C(=O)[C@H](CCc2ccc(C(F)(F)F)c(Cl)c2)NC(=O)CN(C)C(=O)[C@H](Cc2ccc(C)cc2)N(C)C(=O)[C@@H]2CCN2C(=O)[C@H](C)N(C)C1=O [Compound 1886] ([NMeL]I[NMeA][Aze][NMePhe(4-Me)][Sar][hPhe(3-Cl-4-CF3)][X48][Ac5c][NMeI][NMeD]-NMe2; lactam N-11) | ≤ 0.02
CC[C@H](C)[C@@H]1NC(=O)[C@H](CC(C)C)N(C)C(=O)C[C@@H](C(=O)N2CCCCC2)N(C)C(=O)[C@H](CC(C)C)N(C)C(=O)C(C)(C)NC(=O)[C@H](COCC(=O)NC(C)(C)C)N(C)C(=O)[C@H](CCc2ccc(C(F)(F)F)c(Cl)c2)NC(=O)CN(C)C(=O)[C@H](COCCC(C)C)N(C)C(=O)CN(C)C(=O)CN(C)C1=O [Compound 1480] ([NMeL]I[Sar][Sar][NMeS](Isopentyl)[Sar][hPhe(3-Cl-4-CF3)][NMeS](CH2CONHtBu)[Aib][NMeL][NMeD]-Piperidide; lactam N-11) | > 0.5
C#CC[C@@H]1NC(=O)[C@H](Cc2cccc(I)c2)NC(=O)CN(C)C(=O)[C@H](Cc2ccccc2)N(C)C(=O)[C@@H]2CCN2C(=O)[C@H](C)N(C)C(=O)[C@H]([C@@H](C)CC)NC(=O)[C@H](CC(C)C)N(C)C(=O)C[C@@H](C(=O)N2CCCCC2)N(C)C(=O)[C@H](CC(C)C)NC(=O)C(C)(C)N(C)C1=O [Compound 1313] ([NMeL]I[NMeA][Aze][NMeF][Sar][Phe(3-I)][Pra][NMeAib]L[NMeD]-Piperidide; lactam N-11) | > 0.5
CC[C@H](C)[C@@H]1NC(=O)[C@H](CC(C)C)N(C)C(=O)C[C@@H](C(=O)N2CCCC2)N(C)C(=O)[C@H](C2CCCC2)N(C)C(=O)C2(CCCC2)NC(=O)[C@@H]2CCCN2C(=O)[C@H](CCc2ccc(C(F)(F)F)c(Cl)c2)NC(=O)CN(C)C(=O)[C@H](CC2CCCCC2)N(C)C(=O)CN(C)C(=O)CN(C)C1=O [Compound 1818] ([NMeL]I[Sar][Sar][NMeCha][Sar][hPhe(3-Cl-4-CF3)]P[Ac5c][NMeGly(cPent)][NMeD]-Pyrrolidide; lactam N-11) | ≤ 0.02
CC[C@H](C)[C@@H]1NC(=O)[C@H](CC(C)C)N(C)C(=O)C[C@@H](C(=O)N(C)C)N(C)C(=O)[C@H](C2CCCC2)N(C)C(=O)C2(CCCC2)NC(=O)[C@H](Cc2ccccc2F)N(C)C(=O)[C@H](CCc2ccc(C(F)(F)F)c(Cl)c2)NC(=O)CN(C)C(=O)[C@H](CC2CCCCC2)N(C)C(=O)[C@@H]2CCN2C(=O)[C@H](C)N(C)C1=O [Compound 43] ([NMeL]I[NMeA][Aze][NMeCha][Sar][hPhe(3-Cl-4-CF3)][NMePhe(2-F)][Ac5c][NMeGly(cPent)][NMeD]-NMe2; lactam N-11) | > 0.5
CCCC[C@@H]1NC(=O)[C@H](CC(C)C)N(C)C(=O)C[C@@H](C(=O)N2CCCCC2)N(C)C(=O)[C@H](C2CCCCC2)N(C)C(=O)C2(CCCC2)NC(=O)[C@@H]2CCCN2C(=O)[C@H](CCc2ccc(C(F)(F)F)c(Cl)c2)NC(=O)CN(C)C(=O)[C@H](CC2CCCCC2)N(C)C(=O)CN(C)C(=O)CN(C)C1=O [Compound 1723] ([NMeL][Nle][Sar][Sar][NMeCha][Sar][hPhe(3-Cl-4-CF3)]P[Ac5c][NMeChg][NMeD]-Piperidide; lactam N-11) | > 0.5
CC(C)C[C@H]1C(=O)N[C@@H](C2CC2)C(=O)N(C)CC(=O)N(C)CC(=O)N(C)[C@@H](CC2CCCCC2)C(=O)N(C)CC(=O)N[C@@H](CCc2ccc(C(F)(F)F)c(Cl)c2)C(=O)N2CCC[C@H]2C(=O)NC2(CCCC2)C(=O)N(C)[C@@H](C2CCCCC2)C(=O)N(C)[C@H](C(=O)N2CCCCC2)CC(=O)N1C [Compound 1862] ([NMeL][Gly(cPr)][Sar][Sar][NMeCha][Sar][hPhe(3-Cl-4-CF3)]P[Ac5c][NMeChg][NMeD]-Piperidide; lactam N-11) | > 0.5
